In publication PMC5107916, “Quantitative fluorescence spectroscopy and flow cytometry analyses of cell-penetrating peptides internalization pathways: optimization, pitfalls, comparison with mass spectrometry quantification” (Scientific Reports, 2016):
Read-outs that look alike come from different tables or passages of the source.

Assays:
[1] = test system: GAG-deficient CHO-pgsA745 cells (GAG^deficient); conditions: fluorometry of lysate (50 mM Tris pH 7.4, 1 M NaCl, 1% NP40, sonicated), ex 494 nm, calibration curve, 10^6 cells, 7.5 μM peptide in DMEM, 60 min, mean ± spread, n in cell; for 37 °C - INTERNALIZED, GAG^deficient (FLUOROMETRY): trypsin digestion; for 4 °C - INTERNALIZED, GAG^deficient (FLUOROMETRY): pronase digestion
Procedure: (§1) To quantify CPP internalization in cells, we kept the conditions of sample preparation for the measurement of the quantity of internalized and cell-associated (membrane-bound plus internalized) fluorescent peptides previously optimized for a MALDI-TOF MS based protocol, and illustrated in Fig. 3. Briefly, one million adherent cells were incubated with CF-CPP for the indicated time and temperature. […] Cells were then washed, lysed, sonicated and the lysate was cleared by centrifugation. The amount of internalized peptide was quantified by direct measurement of the fluorescence remaining in the supernatant. To evaluate the quantity of cell-associated (membrane-bound and internalized) peptide, the proteolytic step was omitted. A calibration curve was fitted from the fluorescence intensity of definite amounts of the same peptide in cell lysates ran in parallel for each experiment (Fig. 3). Comparison of the fluorescence intensity between the samples and the calibration curve permitted the absolute quantification of internalized and cell-associated peptides.
(§2) Figure 4 Quantification by fluorometry of (A) internalized and (B) membrane-bound CF-Penetratin in WT, GAG^deficient and SA^deficient CHO cells. One million cells were incubated with 2.5 or 7.5 μM CF-Penetratin in DMEM for 60 min at 37 °C or 4 °C. To measure the total cell-associated peptide (membrane-bound plus internalized), cells were washed and lysed in a buffer (50 mM Tris pH 7.4, 1 M NaCl, 1% Nonidet P40), sonicated and centrifuged 10 min at 16,000 g. To obtain the internalized peptide, the membrane-bound peptide was digested with 0.05% trypsin/EDTA (37 °C) or pronase (4 °C). After washes, cells were lysed, sonicated and centrifuged. To calculate the amount of internalized and membrane bound cell peptide, we compare the fluorescence intensity (excitation at 494 nm) to the calibration curve obtained from parallel experiments (see Fig. 3). Error bars correspond to standard errors obtained from n = 4 independent experiments for each experimental condition. Intracellular concentrations (μM) were calculated from the mean volume of one CHO cell (assimilated to a sphere of 10–15 μm diameter) being 1 pL: picomoles in 1 μL (10^6 cells) thus correspond to μM concentrations.
(§3) Wild type Chinese Hamster Ovary CHO-K1 cells (WT), xylose-transferase- or GAG-deficient CHO-pgsA745 cells (GAG^deficient) and sialic acid deficient CHO-lec2 cells (SA^deficient) (ATCC, LGC Standards S.a.r.l. - France) were cultured in F12 growth medium (DMEM-F12) supplemented with 10% fetal calf serum (FCS), penicillin (100,000 IU/L), streptomycin (100,000 IU/L), and amphotericin B (1 mg/L) in a humidified atmosphere containing 5% CO2 at 37 °C.
(§4) One million cells were incubated one hour at 37 °C or 4 °C with CF-Penetratin (2.5 μM and 7.5 μM), Biotin-(CF)Penetratin, CF-Arg9 and CF-TAT (7.5 μM) in 1 mL DMEM.
(§5) To access internalized peptides, after washing cells with HBSS, (0.05%) 500 μL trypsin/EDTA (37 °C, 5 min) or (0.05%) pronase (4 °C, 10 min) was added for 5 min to hydrolyze the remaining extracellular and the membrane-bound peptide and to detach cells. After addition of enzyme inhibitors (100 μL (one Complete Mini tablet, Roche, in 2.5 mL PBS) mixed with 100 μL bovine serum albumin (1 mg/mL), cells were transferred into a microtube, centrifuged, washed with 1 mL 50 mM Tris buffer pH 7.4, 0.1% BSA, and lysed in 200 μL 50 mM Tris pH 7.4, 1 M NaCl, 1% NP40. The samples were then sonicated for 30 min and centrifuged 10 min at 16,000 g.
(§6) To obtain the value of the total cell-associated peptide (internalized and membrane-bound species), after washing cells with HBSS, cells were directly lysed in 50 mM Tris pH 7.4, 1 M NaCl, 1% NP40. The samples were then sonicated for 30 min and centrifuged 10 min at 16,000 g.

[2] = test system: sialic acid deficient CHO-lec2 cells (SA^deficient); conditions: fluorometry of lysate (50 mM Tris pH 7.4, 1 M NaCl, 1% NP40, sonicated), ex 494 nm, calibration curve, 10^6 cells, 7.5 μM peptide in DMEM, 60 min, mean ± spread, n in cell; for 37 °C - INTERNALIZED, SA^deficient (FLUOROMETRY): trypsin digestion; for 4 °C - INTERNALIZED, SA^deficient (FLUOROMETRY): pronase digestion
Procedure: as §1, §2, §3, §4, §5, §6

CHO cells [3] = assay: Cytotoxicity, Cell Counting Kit 8 (CCK-8); format: cell-based, Chinese Hamster; conditions: 2 × 10^4 CHO cells/well, peptide 1; 5; 10 and 20 μM, 60 min, then 3 h 10% CCK-8, absorbance 450 nm
Procedure: Cytotoxicity was determined with the Cell Counting Kit 8 (CCK-8) from Dojindo Molecular Technologies. This colorimetric assay allows to measure the viability of cells. 96-well plates were inoculated with 100 μL/well of a suspension of CHO cells (2.10^4 cells/well). […] After washing, the cells were incubated with 100 μL of 10% CCK-8 in DMEM for 3 hours and the absorbance was measured at 450 nm with a microplate reader (Polarstar Optima). Controls corresponded to untreated cells (negative control, 100% viability) and cells treated with 0.2% of Triton X-100 (positive control, 0% viability). Supplementary Figure S1. […] A 96-well plate was inoculated with 100 µL/well of a suspension of CHO cells (2 × 10^4 cells/well). […] Controls corresponded to untreated cells (negative control, 100% viability) and cells treated with 0.2% of Triton X-100 (positive control, 0% viability).

[4] = test system: Wild type Chinese Hamster Ovary CHO-K1 cells (WT); assay: Fluorometry quantification of internalized CF-peptide in cell lysates; format: cell-based; conditions: for 4 °C - INTERNALIZED, WT (FLUOROMETRY) / 37 °C - INTERNALIZED, WT (FLUOROMETRY): fluorometry of lysate (50 mM Tris pH 7.4, 1 M NaCl, 1% NP40, sonicated), ex 494 nm, calibration curve, 10^6 cells, 7.5 μM peptide in DMEM, 60 min, mean ± spread, n in cell; for 4 °C - INTERNALIZED, WT (FLUOROMETRY): 4 °C (translocation only), 0.05% pronase digestion; for 37 °C - INTERNALIZED, WT (FLUOROMETRY): 0.05% trypsin/EDTA digestion, μM from 1 pL cell volume
Procedure: as §1, §2, §3, §4, §5, §6

[5] = test system: Wild type Chinese Hamster Ovary CHO-K1 cells (WT); conditions: 7.5 μM extracellular peptide
Procedure: as §1, §3
(§7) The protocol has been fully described elsewhere by Burlina et al.[14][16]. Briefly, one million adherent cells were incubated one hour with biotin-labeled peptides (^1H-CPP). After washing with HBSS, 0.05% trypsin/EDTA (37 °C, 5 min) or 0.05% pronase (4 °C, 10 min) digestion, cells were lysed in a solution containing a relevant quantity of the deuterated form (^2H-CPP) of the same peptide sequence, which is used as internal standard to quantify the internalized amount of ^1H-CPP. MALDI-TOF MS analyses were done using cyano-4-hydroxy-cinnamic acid (CHCA), for Biotin-Penetratin or sinapinic acid for Biotin-(CF)Penetratin. Unless indicated, experiments were performed in triplicates and repeated at least three times independently.

[6] = test system: GAG-deficient CHO-pgsA745 cells (GAG^deficient); conditions: MALDI-TOF MS (sinapinic acid matrix), 2H-peptide internal standard, 10^6 adherent cells, 7.5 μM extracellular peptide, 1 h, trypsin digestion
Procedure: as §1, §3, §7

CHO cells [7] = test system: CHO cells
Procedure: We examined the impact of the concentration of Trypan Blue on cell-associated fluorescence compared to control conditions in the absence of Trypan Blue. Cells were incubated with CF-Penetratin. After washings, different concentrations of Trypan Blue were added before cytometry analysis. […] We next examined the quenching ability of Trypan Blue on increasing CF-Penetratin concentrations.
Figure 7 Quenching assays of membrane-bound fluorescence for flow cytometry internalization quantification. (A) Fluorescence quenching according to Trypan Blue quantity (% in g for 100 mL). […] After washing with cold PBS, cells were analyzed in the absence or the presence of Trypan Blue. Lower panel: Stern-Volmer plot. (B) Quenching of membrane fluorescence was assayed with various experimental conditions: 0.2% Trypan Blue, 0.01% trypsin (5 min, 37 °C), 0.5 mg/mL heparin (3 times 5 min, 37 °C). 20,000 events were recorded for each experimental condition. Data were normalized to 100% fluorescence in the absence of Trypan Blue.
Cells were dissociated with 0.5 mM EDTA in PBS (5 min at 37 °C), centrifuged at 800 g, and suspended in DMEM culture medium. […] To optimize fluorescence quenching of the membrane-bound fluorescein, the cell suspension was treated with different concentrations of Trypan Blue. […] 20,000 events were recorded for every experimental conditions.

[8] = test system: Wild type Chinese Hamster Ovary CHO-K1 cells (WT); conditions: MALDI-TOF MS of lysate, 2H-peptide internal standard, 10^6 adherent cells, 7.5 μM extracellular peptide, 1 h, ref [19], cited from earlier work
[9] = test system: sialic acid deficient CHO-lec2 cells (SA^deficient); conditions: MALDI-TOF MS of lysate, 2H-peptide internal standard, 10^6 adherent cells, 7.5 μM extracellular peptide, 1 h, ref [19], cited from earlier work
[10] = test system: GAG-deficient CHO-pgsA745 cells (GAG^deficient); conditions: MALDI-TOF MS of lysate, 2H-peptide internal standard, 10^6 adherent cells, 7.5 μM extracellular peptide, 1 h, ref [19], cited from earlier work
[11] = 37 °C, trypsin digestion, μM from 1 pL cell volume

Biotin-GGGG(εCF)KRQIKIWFQNRRMKWKK-NH2 [Biotin-(CF)PEN]
37 °C - INTERNALIZED, GAG^deficient (FLUOROMETRY) [1]: 1.1 ± 0.1 (n = 4) μM
37 °C - INTERNALIZED, SA^deficient (FLUOROMETRY) [2]: 6.9 ± 1.8 (n = 3) μM
cytotoxicity (cell viability, CCK-8) (CHO cells [3]): none of the peptides used in this study was cytotoxic
4 °C - INTERNALIZED, WT (FLUOROMETRY) [4]: 1.5 ± 0.1 (n = 10) μM
37 °C - INTERNALIZED, WT (FLUOROMETRY) [4]: 9.8 ±1.0 (n = 14) μM
4 °C - INTERNALIZED, WT (MALDI-TOF MS) ([5]; MALDI-TOF MS (sinapinic acid matrix), 2H-peptide internal standard, 10^6 adherent cells, 1 h, 4 °C, pronase digestion): Not detectable
37 °C - INTERNALIZED, WT (MALDI-TOF MS) ([5]; MALDI-TOF MS (sinapinic acid matrix), 2H-peptide internal standard, 10^6 adherent cells, 1 h, 37 °C, trypsin digestion, μM from 1 pL cell volume, mean ± spread, n in cell): 8.7 ± 1.1 (n = 19) μM
intracellular degradation of the internalized peptide, from mass spectra ([5]; MALDI-TOF MS of cell lysate, one-hour incubation, 37 °C): not quickly degraded
37 °C - INTERNALIZED, GAG^deficient (MALDI-TOF MS) [6]: Not detectable

Carboxyfluorescein-Apa-RQIKIWFQNRRMKWKK-NH2 [CF-PEN]
4 °C - INTERNALIZED, GAG^deficient (FLUOROMETRY) [1]: 1.7 ± 0.8 (n = 3) μM
4 °C - INTERNALIZED, GAG^deficient (FLUOROMETRY) ([1]; listed as CF-Penetratin): 1 to 2 µM
37 °C - INTERNALIZED, GAG^deficient (FLUOROMETRY) [1]: 7.0 ± 0.5 (n = 4) μM
4 °C - INTERNALIZED, SA^deficient (FLUOROMETRY) [2]: 1.0 ± 0.1 (n = 4) μM
4 °C - INTERNALIZED, SA^deficient (FLUOROMETRY) ([2]; listed as CF-Penetratin): 1 to 2 µM
37 °C - INTERNALIZED, SA^deficient (FLUOROMETRY) [2]: 33 ± 5.3 (n = 4) μM
4 °C - INTERNALIZED, WT (FLUOROMETRY) [4]: 2.4 ± 0.4 (n = 3) μM
4 °C - INTERNALIZED, WT (FLUOROMETRY) ([4]; listed as CF-Penetratin): 1 to 2 µM
37 °C - INTERNALIZED, WT (FLUOROMETRY) [4]: 22 ± 1.3 (n = 11) μM
ratio of total cell-associated to internalized peptide by fluorometry ([4]; fluorometry of lysates, cell line not given): ~100 folds
difference between total cell-associated and internalized fluorescence signals by flow cytometry (CHO cells [7]): 1.25 to 2 folds

Biotin-GGGGRQIKIWFQNRRMKWKK-NH2 [Biotin-PEN]
4 °C - INTERNALIZED, WT (MALDI-TOF MS) ([8]; 4 °C (translocation only), 0.05% pronase digestion): 0.9 ± 0.2 µM
37 °C - INTERNALIZED, WT (MALDI-TOF MS) ([8]; 37 °C, membrane-bound peptide digested with 0.05% trypsin/EDTA, μM from 1 pL cell volume): 5.0 ± 0.5 µM
4 °C - INTERNALIZED, SA^deficient (MALDI-TOF MS) ([9]; 4 °C, pronase digestion): 1.0 ± 0.2 µM
37 °C - INTERNALIZED, SA^deficient (MALDI-TOF MS) [9, 11]: 6.0 ± 1.0 µM
4 °C - INTERNALIZED, GAG^deficient (MALDI-TOF MS) ([10]; 4 °C, pronase digestion): 0.6 ± 0.1 µM
37 °C - INTERNALIZED, GAG^deficient (MALDI-TOF MS) [10, 11]: 1.9 ± 0.2 µM
